Test [1] concerns the target T1, Fatty acid-binding protein, heart (Homo sapiens, UniProt P05413).
Description: Inhibition of human FABP3 by 8-anilino-1-naphthalenesulfonic acid based fluorescence displacement assay
The target in test [2] is Fatty acid-binding protein, adipocyte (Homo sapiens, UniProt P15090).
Test [3] addresses T1, Fatty acid-binding protein, heart. Nature of the test: Binding affinity to human FABP3 by surface plasmon resonance assay.

This note sets out measurements from ChEMBL document CHEMBL2331161, “Structure-guided design, synthesis and in vitro evaluation of a series of pyrazole-based fatty acid binding protein (FABP) 3 ligands” (Bioorg Med Chem Lett, 2013).

Chain of Fatty acid-binding protein, adipocyte (P15090 whole entry): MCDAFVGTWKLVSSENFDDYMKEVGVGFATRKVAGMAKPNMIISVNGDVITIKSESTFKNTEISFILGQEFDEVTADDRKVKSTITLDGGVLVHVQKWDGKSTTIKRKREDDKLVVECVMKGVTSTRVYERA
T1 sequence (P05413 whole entry): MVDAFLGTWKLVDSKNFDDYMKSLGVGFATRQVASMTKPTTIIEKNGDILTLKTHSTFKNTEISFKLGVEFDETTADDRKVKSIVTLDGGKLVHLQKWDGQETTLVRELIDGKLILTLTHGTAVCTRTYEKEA

`O=C(O)COc1cccc(-c2ccccc2-c2cc(-c3ccccc3)n(-c3ccccc3)n2)c1`: the values for the IC50 in test [1] and in test [2] (read-out: IC50) were greater than 10000 µM and 0.987 µM, respectively.
The like results for `Cc1ccc(-c2cc(-c3ccccc3OCCCCC(=O)O)nn2-c2ccccc2)cc1` were, in that order, greater than 10000 µM and 259 µM.
The matching figures for `O=C(O)CCCOc1ccccc1-c1cc(-c2ccccc2)n(C2CCCCC2)n1`: 5.26 µM and 23.5 µM.
The matching figures for `O=C(O)CCCOc1ccccc1-c1cc(-c2ccccc2)n(C2CCCCCC2)n1`: 6.47 µM and 15.5 µM.
As to `O=C(O)COc1ccccc1-c1cc(-c2ccc(Cl)cc2)n(-c2ccccc2)n1`, the IC50 in test [1] and in test [2] (read-out: IC50) was greater than 10000 µM each time.
Consider `O=C(O)CCCOc1ccccc1-c1cc(-c2ccc(Cl)cc2)n(-c2ccccc2)n1`, for which the IC50 in test [1] is 21 µM; in test [2] (read-out: IC50) it was 6.13 µM.
The like results for `O=C(O)CCCCOc1ccccc1-c1cc(-c2ccc(Cl)cc2)n(-c2ccccc2)n1` were, in that order, 243 µM and 74 µM.
The matching figures for `O=C(O)CCCCCCOc1ccccc1-c1cc(-c2ccc(Cl)cc2)n(-c2ccccc2)n1`: greater than 10000 µM and 31 µM.
The like results for `Cc1ccc(-c2cc(-c3ccccc3OCCCC(=O)O)nn2-c2ccccc2)cc1` were, in that order, 4730 µM and 5.41 µM.
For `O=C(O)CCCOc1ccccc1-c1cc(-c2ccc(Br)cc2)n(-c2ccccc2)n1`, the IC50 in test [1] amounted to 224 µM; in test [2] (read-out: IC50), 9.51 µM.
For `O=C(O)CCCOc1ccccc1-c1cc(-c2ccccc2)n(-c2ccccc2)n1`, the Kd in test [3] was 16.3 µM. Moreover, the figures for the IC50 in test [1] and in test [2] (read-out: IC50) were 2.01 µM and 3.02 µM, respectively.
With `O=C(O)CCCCOc1ccccc1-c1cc(-c2ccccc2)n(-c2ccccc2)n1`, the figures for the IC50 in test [1] and in test [2] (read-out: IC50) were greater than 10000 µM and 6.39 µM, respectively.
The like results for `O=C(O)CCCCOc1ccccc1-c1cc(-c2ccc(Br)cc2)n(-c2ccccc2)n1` were, in that order, 22.3 µM and 86 µM.
In the case of `O=C(O)CCCOc1ccccc1-c1cc(-c2ccccc2)n(-c2ccc(F)cc2)n1`, the Kd in test [3] is 5.26 µM. Also, the 50% inhibitory concentration (IC50) in test [1] was 1.14 µM.
The molecule `O=C(O)CCCOc1ccccc1-c1cc(-c2ccccc2)n(-c2ccc(Cl)cc2)n1` gave a Kd in test [3] of 2.17 µM. Moreover, the IC50 was 0.733 µM in test [1] and 4.32 µM in test [2] (read-out: IC50).
As for `CC(C)c1ccc(-n2nc(-c3ccccc3OCCCC(=O)O)cc2-c2ccccc2)cc1`, the IC50 in test [2] (read-out: IC50) is 10.3 µM.
With `COc1ccc(-n2nc(-c3ccccc3OCCCC(=O)O)cc2-c2ccccc2)cc1`, the IC50 was determined as 1.65 µM in test [1] and 13.6 µM in test [2] (read-out: IC50).
For `O=C(O)CCCOc1ccccc1-c1cc(-c2ccccc2)n(-c2ccccc2Cl)n1`, the IC50 in test [1] came out at 1.16 µM; in test [2] (read-out: IC50), 4.27 µM.
As for `COc1ccccc1-n1nc(-c2ccccc2OCCCC(=O)O)cc1-c1ccccc1`, the IC50 in test [1] is 505 µM; in test [2] it was “Not Active”.
On to `O=C(O)CCCOc1ccccc1-c1cc(-c2ccccc2)n(-c2cccc(Cl)c2)n1`, for which the half-inhibitory concentration (IC50) in test [2] (read-out: IC50) stood at 2.5 µM.
With `O=C(O)CCCOc1ccccc1-c1cc(-c2ccccc2)n(C2CCCC2)n1`, the IC50 in test [1] stood at 6.03 µM; in test [2] (read-out: IC50) it was 16.6 µM.
